# Results as given in PubChem BioAssay AID624265 (Broad Institute, 2012).
# Active and inactive are the calls of the source.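 The calls were made as follows: active = at a dose no more than twice the top valid tested dose, the fitted curve drops below -35% activity change; inactive = the rest, rising-direction activity included.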
# Experiment: cytotoxicity in NIH3T3 fibroblasts, dose response, cytotoxicity control for HSP40 inhibitor project, cell-based, CellTiter-Glo luminescence, cherry-pick, set 2 (AID 624265);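 also: cells exposed to compound for 48 hours before the ATP read; 0% = median neutral control signal and -100% = no luminescence left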
# Conditions: NIH3T3 viability, CellTiter-Glo ATP luminescence
SMILES,"activity change, negative = toxicity (at 50 µM (top of the series))","activity change, negative = toxicity (at 5.6 µM (top of the series))"
CCC1=NN(C(=O)c2cccc(Br)c2)C(O)(c2ccc(Br)cc2)C1 (configuration not stated),4.18% (inactive),
Cc1ccc2c(C)c3ccc4ccccc4c3c[n+]2c1,11.9% (inactive),
COC(=O)C1=NN(C(=O)c2cccc(Br)c2)C(O)(c2ccc(Cl)cc2)C1 (configuration not stated),-0.434% (inactive),
CCc1ccc(CN(C)C(=O)c2cc(COc3cccc(C(F)(F)F)c3)on2)nc1,5.53% (inactive),
O=C(CC1CC2CCC1C2)Nc1nc(-c2ccccn2)cs1 (configuration not stated),10.2% (inactive),
Cc1ccccc1Oc1nc(-c2ccccn2)nc2ccccc12,6.99% (inactive),
CCCCC(=O)NC(=S)NNC(=O)CCc1ccccc1,-16.3% (inactive),
C(=C1c2ccccc2-c2ccccc21)c1ccncc1,14.2% (inactive),
COc1cc([N+](=O)[O-])cc(/C=N/NC(=O)c2cncc(Br)c2)c1O,-13.4% (inactive),
COc1cccc(C(C)=C2SC(=S)NC2=O)c1,1.04% (inactive),
Oc1c(Br)cc(-c2ccccc2)cc1Br,10.3% (inactive),
O=C(CSc1ccc(-c2ccccn2)nn1)c1ccccc1,-10.1% (inactive),
Clc1ccc(-c2n[nH]c3c2CCC3)cc1Cl,1.25% (inactive),
CCN1C(=O)C(CC(=O)Nc2ccccc2Cl)N(NC(=O)c2cccc(F)c2)C1=S (configuration not stated),11.9% (inactive),
CCCOc1ccc(S(=O)(=O)n2cc(F)c(=O)[nH]c2=O)cc1,10.7% (inactive),
O=C(NCc1ccncc1)c1ccccc1Nc1ccc(SC(F)F)cc1,3.29% (inactive),
NC(=Nc1nc(-c2ccccn2)cc2ccccc12)c1ccccn1,-27.1% (inactive),
S=C(NCc1ccco1)Nc1ccc(Oc2ccc(Cl)cc2)cc1,10.2% (inactive),
CCN(CC)C(=O)CSc1ncnc2sc(-c3ccccc3)cc12,9.41% (inactive),
CCCC(C)Sc1nc2c([nH]1)c(=S)n(C)c(=O)n2C (configuration not stated),0.769% (inactive),
Clc1ccc(C(Cn2ccnc2)OCc2c(Cl)cccc2Cl)c(Cl)c1 (configuration not stated),0.224% (inactive),
Oc1ccccc1-c1cc(-c2ccc3c(c2)OCCO3)n[nH]1,-2.25% (inactive),
CCCCCCCc1ccc(-c2ccc(O)cc2)nc1,25.5% (inactive),

SMILES,"activity change, negative = toxicity (at 50 µM (top of the series))","activity change, negative = toxicity (at 5.6 µM (top of the series))"
c1ccc(CSc2ccc(-c3ccccn3)nn2)nc1,-13% (inactive),
O=C(Nc1ccc(Br)c(C(F)(F)F)c1)c1ccccc1,-9.98% (inactive),
COc1ccc(N(C(=O)c2ccncc2)S(=O)(=O)c2ccccc2)cc1,-6.26% (inactive),
O=C(CN1CC[n+]2c(-c3cccs3)csc21)c1ccc(-c2ccccc2)cc1,28% (inactive),
COC(=O)COC(=O)c1ccccc1NC(=O)c1ccccc1,-14.7% (inactive),
CNc1cc(CSC)nc(SCc2ccc(Cl)cc2Cl)n1,18.6% (inactive),
CC1CCc2c(C(=O)Nc3ccccn3)csc2C1 (configuration not stated),-3.05% (inactive),
O=C(Nc1nnc(-c2ccccc2)o1)c1ccc(Cl)cc1,29.9% (inactive),
CCCCCCSc1ccc(-c2nc3ccccn3c2NCCCC)cc1,14% (inactive),
CCOC(=O)c1cnc(-n2nc(C)cc2C)nc1NC1CCCC1,37.9% (inactive),
Cc1ccc(NC(=O)CN(C)C(=O)c2cccnc2Nc2cccc(C(F)(F)F)c2)cc1,-0.151% (inactive),
FC(F)(F)c1nc(SCc2ccc(Cl)cc2Cl)n[nH]1,-4.01% (inactive),
CCCCCOc1ccc(CSc2n[nH]c(C)n2)cc1,5.34% (inactive),
O=C(CCCSc1ccccc1)Nc1nc(-c2ccccn2)cs1,-1.21% (inactive),
CC(C)(C)n1nc(Cc2cccc3ccccc23)c2c(N)ncnc21,9.94% (inactive),
CC1(C)CC(=O)C(N=Nc2ccc3ncsc3c2)=C(O)C1,3.01% (inactive),
C[C@@]12CCC3[C@@](CCC4[C@@]3(C)CCC[C@@]4(C)C(=O)NCc3ccccc3)(CC1=O)C2 (some centres not stated),2.89% (inactive),
COc1cc2c(c(OC)c1OC)-c1ccc(O)c(=O)cc1[C@@H](NC(C)=O)CC2,4.18% (inactive),
CCC(C)c1ccc(NC(=S)NCCn2cc(Br)cn2)cc1 (configuration not stated),16.1% (inactive),
C=CCc1ccc(O)c(-c2ccc(O)c(CC=C)c2)c1,9.45% (inactive),
O=[N+]([O-])c1cccc(C=NNc2ccc3ccccc3n2)c1O,-29.6% (inactive),
CCOC(=O)N1C(=O)C2(CCCCC2)N(c2ccccc2Cl)C1=S,-8.13% (inactive),
Cc1ccc(NC2(c3nnnn3-c3c(C)cccc3C)CCCCC2)cc1,0.981% (inactive),

SMILES,"activity change, negative = toxicity (at 50 µM (top of the series))","activity change, negative = toxicity (at 5.6 µM (top of the series))"
Cc1nc2ccc(C(C(F)(F)F)(C(F)(F)F)C(F)(F)F)cc2[nH]1,3.14% (inactive),
CCCCn1c(=O)c(C(=O)NCc2ccncc2)c(O)c2ccccc21,25% (inactive),
CCOc1ccc(N/N=C(/C#N)C(N)=O)cc1,9.15% (inactive),
O=C1Nc2c(Br)cccc2C1=O,-1.42% (inactive),
COc1cnc(-c2ccccn2)nc1Sc1ccc(C)cc1,-14.4% (inactive),
C=CCNC(=S)N1CCC(Cc2ccccc2)CC1,7.32% (inactive),
CN(c1ccccc1)c1nc(N2CCCC2)nc(-n2ccnc2)n1,11.2% (inactive),
CC(C)C(=O)NC(c1cccc([N+](=O)[O-])c1)c1ccc2cccnc2c1O (configuration not stated),,-21% (inactive)
CC1Oc2ccccc2C=C1/C=N/Nc1ccc(C(=O)O)cc1 (configuration not stated),1.68% (inactive),
CCCCCCC(Cl)(Cn1ccnc1)c1ccccc1 (configuration not stated),16% (inactive),
Cc1nn(CCC#N)c(N)c1C1(O)C(=O)Nc2c(Cl)cc(Cl)cc21 (configuration not stated),-6.69% (inactive),
Nc1cc2c3ccccc3ccc2c2ccccc12,-1.86% (inactive),
CC(C)(C)C(O)C(Cc1ccccc1Cl)n1cncn1 (configuration not stated),-1.54% (inactive),
Cc1cc(C)c(C(=O)CC(=O)c2cccnc2)c(C)c1,8.73% (inactive),
Cc1cc(Nc2ccccc2)nn1C(=O)c1ccccc1,10% (inactive),
FC(F)(F)c1cccc(N2CCc3cn[nH]c32)c1,-9.14% (inactive),
O=C(O)CSc1nc(-c2ccc(Cl)cc2)nc2c1oc1ccccc12,-3.22% (inactive),
O=C(NC(=S)N(CCc1ccccc1)CCc1ccccc1)c1ccco1,20.1% (inactive),
CC(C)NC(=O)NC(=O)COC(=O)c1ccc([N+](=O)[O-])cc1Cl,-6.58% (inactive),
Cc1cccc(Oc2nc(-c3ccccn3)nc3ccccc23)c1,18.9% (inactive),
CCOC(=O)c1ccc(N2C(=O)CC(N3CCC(O)(c4ccc(Cl)cc4)CC3)C2=O)cc1 (configuration not stated),-0.824% (inactive),
Oc1c(I)cc(Cl)c2cccnc12,-13.1% (inactive),
CCn1c2ccc(C)cc2c2nc3cc(C(=O)O)ccc3nc21,-4.25% (inactive),

SMILES,"activity change, negative = toxicity (at 50 µM (top of the series))","activity change, negative = toxicity (at 5.6 µM (top of the series))"
Cc1ccc2oc(-c3ccccc3)c(C(=O)O)c(=O)c2c1,-13.9% (inactive),
CCCSC(=S)c1c(C)[nH]n(-c2ccccc2)c1=O,-14.1% (inactive),
COC(=O)c1cccc2c1-c1ccccc1/C2=N/O,28.2% (inactive),
Nc1nc(-c2ccc(Oc3ccccc3)cc2)cs1,6.84% (inactive),
O=C(N/N=C/c1cc(Cl)cc([N+](=O)[O-])c1O)c1ccccc1NS(=O)(=O)c1cccs1,2.81% (inactive),
CCOC(=O)c1ccc(NC(=S)N(Cc2cccnc2)Cc2ccco2)cc1,2.56% (inactive),
O=C(OCC(=O)C12CC3CC(CC(C3)C1)C2)c1ccc(O)cc1,0.345% (inactive),
CC1(C)C2CCC1(C)C(OC(=O)c1ccc(O)cc1)C2 (configuration not stated),-0.777% (inactive),
C=C(C)COc1ccc(-c2[nH]ncc2-c2ccccc2)c(O)c1,-16.4% (inactive),
CCCCCCCn1c(=O)c(C(=O)OC)c(N)c2ccccc21,-3.81% (inactive),
Nc1nc(-c2ccccc2)c(-c2ccc([N+](=O)[O-])cc2)s1,15.2% (inactive),
Cc1nc(SCc2ccc(OCCC(C)C)cc2)n[nH]1,3.46% (inactive),
Cc1ccc(NS(=O)(=O)c2ccc(N3CCN(c4ccc(O)cc4)CC3)c([N+](=O)[O-])c2)c(C)c1,24.6% (inactive),
C=CCNc1nc(-c2ccccn2)nnc1-c1ccccc1,-23.8% (inactive),
Cc1ccoc1C(=O)Nc1cccc(Oc2ccccc2)c1,9.85% (inactive),
Cc1ccccc1C(=O)NNC(=S)NC(=O)c1ccc(Cl)cc1Cl,-5.68% (inactive),
COC(=O)C1=C(C)NC(C)=C(C(=O)OCC(C)C)C1c1ccccc1[N+](=O)[O-] (configuration not stated),-14.8% (inactive),
CN1CCN(C(=O)c2cc(COc3ccc(F)cc3Cl)on2)CC1c1ccccc1 (configuration not stated),14.2% (inactive),
Cc1csc(NC(=O)C(C)Oc2ccc(Cl)cc2C)n1 (configuration not stated),8.91% (inactive),
CCCC1CCC(c2ccc(/C(N)=N/O)cc2)CC1 (configuration not stated),-4% (inactive),
c1ccc(-c2ccc(OCCCn3cncn3)cc2)cc1,5.17% (inactive),
O=C(c1ccccc1)c1ccc(Cn2cc(-c3ccccc3)nn2)cc1,5.39% (inactive),
Cc1cccc(N2CCN(C(=O)C3COc4ccccc4O3)CC2)c1C (configuration not stated),-5.05% (inactive),
